Data set [1] relates to patients undergoing CABG surgery. The settings on record: ten minutes after drug administration versus before; cited from earlier work.
The test system of data set [2] is patients with left ventricular dysfunction and/or pulmonary hypertension. The settings on record: 50 μg/kg loading then 0.5 μg/kg/minute, n=15; cited from earlier work.
The conditions of data set [3]: after 6 hours (equilibrium), AHF patients, cited from earlier work.
In data set [4] the test system is Human internal mammary arterial rings. The conditions noted are these: rings pretreated with milrinone; cited from earlier work.
Data set [5] relates to patients with NYHA class III or IV HF and pulmonary vascular resistance of 200 dynes/s/cm or more. Also on record: dose or concentration left out as unconfirmed. The settings on record: cited from earlier work.
Data set [6] has as its system patients with class III or IV CHF. The settings on record: after milrinone therapy; 5 patients at baseline; cited from earlier work.
Data set [7] deals with patients with severe CHF. The settings on record: oral, cited from earlier work.
Data set [8] concerns patients with endstage CHF. The settings on record: compared with the preceding 3 months; cited from earlier work.
For data set [9], the system named is patients with severe CHF. The conditions noted are these: cited from earlier work.
Data set [10] deals with pediatric patients at high risk for developing low cardiac output syndrome (LCOS). The conditions noted are these: cited from earlier work.
In the next data set the test system is refractory HF patients. The settings on record: 12-month study, cited from earlier work.
The subject of data set [11] is patients undergoing cardiopulmonary bypass. The settings on record: cited from earlier work.
In another data set the test system is patients with CHF. Also noted: dose or concentration left out as unconfirmed. The settings on record: 15 minutes post-dosing, cited from earlier work.
Data set [12] has as its system pediatric patients with low cardiac output. The conditions noted are these: intravenous; cited from earlier work.
Data set [13] can be described thus: pH solubility studies on Milrinone (saturated solubility in different buffers). The settings on record: for solubility at 24 h: thermodynamic from solid. The class given is physicochemical. The method, then:
1. pH 1.2-Hydrochloric Acid Buffer
3. pH 6.8-Phosphate Buffer
4. pH 7.4-Phosphate Buffer.
1. 2 mL buffer solution is placed into a 8 mL USP Type I clear glass vial (with screw cap and PTFE septa)
3. The addition of Milrinone is continued till the formation of saturated solution.
4. The pH of the saturated solution is measured after the addition of Milrinone.
5. If there is any difference in pH more than 0.1 units is observed when compared to the initial pH, the pH was adjusted with acid or base respectively to bring it to the initial pH.
6. The vials are closed with screw cap and kept for mixing using rotary tube shaker for 24 h.

Molecules are shown by their SMILES. ≈ marks a conversion by molar mass, not a printed value. Like-named read-outs stand apart in the source and are kept apart here.

In general, solubility refers to the dissolved amount per volume that the medium holds.

In the case of `CNC[C@H](O)c1ccc(O)c(O)c1` [epinephrine], the “change in IMA flow” value in [1] is “unchanged”.

Take `Cc1[nH]c(=O)c(C#N)cc1-c1ccncc1` [milrinone, 1,2-dihydro-3-cyano-6-methyl-5-(4-pyridinyl)-2(1H)-pyridinone]: the “weaning from cardiopulmonary bypass” value in data set [2] is “all patients were successfully weaned”. The “change in IMA flow” value in data set [1] is 24%. The results for the plasma milrinone concentration in [3] (continuous infusion 0.25 μg/kg after loading dose), in data set [3] (continuous infusion 0.5 μg/kg after loading dose) and in data set [3] (continuous infusion 0.75 μg/kg after loading dose) were 97 ng/mL, 197 ng/mL and 284 ng/mL, respectively. Further, the “vasoconstriction by K+, ET-1, U46619 and phenylephrine” value in data set [4] was “significantly less vasoconstricition”. Moreover, in [5] (at 5 minutes), the “mean decrease in pulmonary vascular resistance” value is given as 31%. The duration of response result in [5] is given as “at least 20 minutes”. Besides, the “inducible VT during programmed right ventricular stimulation” value in data set [6] is recorded as “none of the patients experienced inducible VT”. The results for the mortality rate with patients with severe CHF [7] (at 1 year of therapy) and in the data set on patients with severe CHF [7] (at 6 months) were 63% and 39%, respectively. Also, in the data set on patients with severe CHF [7] (average 27 mg/day), the “patients with adverse effects” value is listed as 11%. The “patients with drug withdrawal due to adverse effects” value with patients with severe CHF [7] (average 27 mg/day) was 4%. Further, the “patients improved by at least one New York Heart Association functional class” value in the data set on patients with severe CHF [7] (within 1 month of therapy, remaining 94 patients) is 51%. Besides, the “drop in number of hospitalizations” value in data set [8] is “fourfold”. Moreover, the “left ventricular end-diastolic pressure” value in the data set with patients with severe CHF [9] (after median short-term infusion 75 μg/kg IV, from 27 at baseline) is 18 mmHg. In addition, the “increase in left ventricular ejection fraction” value in the data set on patients with severe CHF [9] (following a 7.5 mg oral dose, 10 patients on drug for 6 months or longer) is 27%. Moreover, in the data set on patients with severe CHF [9] (intravenous), the “decrease in mean arterial pressure” value is 6%. Further, in the data set on patients with severe CHF [9] (intravenous), the “increase in peak positive first derivative of left ventricular pressure (dP/dT)” value is 28%. Further, in the data set with patients with severe CHF [9] (intravenous), the “increase in resting heart rate” value is 8%. Also, the “fever, thrombocytopenia, or gastrointestinal toxicity” value with patients with severe CHF [9] (oral therapy, average 29 mg daily, up to 11 months) was “No evidence”. Further, the “patients who developed LCOS” value in [10] (high-dose group, within 36 hours) is listed as 9.6%; in data set [10] (low-dose group), 17.7%. Further, the “patients with prolonged hospital stays (longer than 15 days)” value in data set [10] (high-dose group) is listed as 13.5%; in data set [10] (low-dose group), 8.2%. Moreover, in data set [10] (low-dose group versus placebo, not statistically significant), the “RRR of LCOS” value is listed as 34%. Also, in the data set with refractory HF patients (from 21 in previous year), the emergency room admissions was 10. Also, the hospital admissions in the data set on refractory HF patients (from 75 in previous year) was 34. The hospital days with refractory HF patients (from 528 in previous year) is given as 150. In addition, the “Plasma concentrations of IL1-beta and IL6” value in data set [11] (after CPB, versus control group, 0.5 μg/kg/minute for 24 hours) is “significantly lower”. In addition, in data set [11] (versus controls), the “concentrations of cyclic adenosine monophosphate” value is given as “significantly increased”. The pulmonary vascular resistance with patients with CHF (from 3.9) is on record as 2.5 Wood units. Besides, the Cardiac output with patients with CHF (from 4.0) is listed as 5.1 L/min. In addition, in the data set on patients with CHF (from 20), the “pulmonary capillary wedge pressure” value is on record as 15 mmHg. Further, in the data set on patients with CHF (from 35), the “mean pulmonary artery pressure” value is given as 28 mmHg. Also, the “average peak plasma concentration” value in data set [12] is given as 235 ng/mL. In data set [12], the “mean decrease in blood pressure” value was 12%. In addition, the solubility entry in data set [13] (acidic pH, decreases gradually with increase in pH) is reported as “highly soluble”. Further, the solubility at 24 h in data set [13] (aqueous buffer, pH 4.5 Acetate Buffer) was 1830 µg/mL (≈ 8.64 mM); in data set [13] (aqueous buffer, pH 6.8 Phosphate Buffer) it was 742 µg/mL (≈ 3.51 mM); in [13] (aqueous buffer, pH 7.4 Phosphate Buffer), 603 µg/mL (≈ 2.85 mM); in [13] (hydrochloric acid buffer, simulated gastric fluid, pH 1.2 Hydrochloric Acide Buffer), 25400 µg/mL (≈ 120 mM).

Source of the values: US10517833B2 (Cardiora Pty Ltd., priority 2011, dated 2019).
